Structures can show the parent of a compound that is named as a salt.
biological target: rat TRPV1 (Rattus norvegicus (Rat), UniProt O35433); settings: read-out: Rat IC50
Sequence (O35433 whole entry): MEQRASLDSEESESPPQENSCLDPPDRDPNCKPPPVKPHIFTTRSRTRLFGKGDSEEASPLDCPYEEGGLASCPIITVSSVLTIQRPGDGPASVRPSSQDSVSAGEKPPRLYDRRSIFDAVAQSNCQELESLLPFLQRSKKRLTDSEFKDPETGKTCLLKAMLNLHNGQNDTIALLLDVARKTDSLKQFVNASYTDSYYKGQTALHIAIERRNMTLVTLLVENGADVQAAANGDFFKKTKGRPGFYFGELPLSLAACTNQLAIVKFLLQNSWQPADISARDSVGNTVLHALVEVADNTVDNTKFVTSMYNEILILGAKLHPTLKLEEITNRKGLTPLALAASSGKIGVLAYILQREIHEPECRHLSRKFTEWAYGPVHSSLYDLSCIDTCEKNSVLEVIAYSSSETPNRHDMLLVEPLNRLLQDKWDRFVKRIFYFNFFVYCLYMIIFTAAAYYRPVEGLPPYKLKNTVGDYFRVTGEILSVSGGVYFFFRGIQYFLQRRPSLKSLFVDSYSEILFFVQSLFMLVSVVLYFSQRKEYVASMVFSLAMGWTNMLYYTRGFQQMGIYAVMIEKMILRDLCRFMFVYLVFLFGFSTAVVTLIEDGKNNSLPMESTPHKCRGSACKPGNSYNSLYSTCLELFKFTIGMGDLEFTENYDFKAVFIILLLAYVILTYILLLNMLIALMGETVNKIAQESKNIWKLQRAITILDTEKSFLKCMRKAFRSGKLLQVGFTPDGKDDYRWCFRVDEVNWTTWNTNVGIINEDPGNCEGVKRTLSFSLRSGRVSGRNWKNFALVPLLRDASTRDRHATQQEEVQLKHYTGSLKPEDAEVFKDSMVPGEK
Protocol: Biological Testing: Functional Assay: Block of Capsaicin-Induced Ca^2+ Influx A. Human Assay
Cells were passaged frequently, every 3-5 days, to avoid overgrowth, depletion of essential medium components, or acidic medium exposure. Cells were passaged using a brief wash in 0.05% trypsin with 1 mM EDTA, followed by dissociation in divalent-free phosphate-buffered saline (Hyclone #SH30028.02). […] The assay buffer was composed of 130 mM NaCl, 2 mM KCl, 2 mM MgCl2, 10 mM HEPES, 5 mM glucose, and either 2 mM or 20 μM CaCl2. On the day of the experiment, the culture medium was replaced with 2 mM calcium assay buffer using an automated plate washer (ELx405; Biotek, VT). […] After loading the cells, the dye solution was replaced with 50 μL/well of 20 μM calcium assay buffer using the ELx405 plate washer. Test compounds (50 μL/well) were added to the plate and incubated for 30 min. […] The IC50 values were determined. […] The contents of the wells were mixed 3 times (40 μL mix volume) immediately after the additions were made. Concentration dependence of block was determined by exposing each well of cells in duplicate rows of a 96 well plate to a serial dilution of test compound. The concentration series usually started at 10 μM with a three-fold serial decrement in concentration. The magnitude of the capsaicin response was determined by measuring the change in fluo3 fluorescence before and 100 seconds after the addition of the agonist. Data were analyzed using a non-linear regression program (Origin; OriginLab, MA). IC50 values shown are the average (mean) of the results obtained.
The assay was performed as described above, using HEK293 cells transfected with rat TRPV1 (rTRPV1/HEK293). […] IC50 values shown are the average (mean) of the results obtained.

Row | Structure (SMILES) | IC50 [nM]
1 | CC(C)Sc1nc2c(c(Nc3ccc4c(c3)N(C)CCC4(C)C)n1)CCN(c1ncccc1C(F)(F)F)CC2 [Example 372, 2-[(1-Methylethyl)sulfanyl]-7-[3-(trifluoromethyl)pyridin-2-yl]-N-(1,4,4-trimethyl-1,2,3,4-tetrahydroquinolin-7-yl)-6,7,8,9-tetrahydro-5H-pyrimido[4,5-d]azepin-4-amine] | 330
2 | Cc1nc2ccccc2nc1N1CCc2ncnc(Nc3ccc(C(C)(C)C)cc3)c2CC1 [Example 32, (4-tert-Butyl-phenyl)-[7-(3-methyl-quinoxalin-2-yl)-6,7,8,9-tetrahydro-5H-pyrimido[4,5-d]azepin-4-yl]-amine] | 13
3 | CC(C)c1nc2c(c(Nc3ccc(C(F)(F)F)cn3)n1)CCN(c1ncccc1C(F)(F)F)CC2 [Example 20, [2-Isopropyl-7-(3-trifluoromethyl-pyridin-2-yl)-6,7,8,9-tetrahydro-5H-pyrimido[4,5-d]azepin-4-yl]-(5-trifluoromethyl-pyridin-2-yl)-amine] | 32
4 | Cc1cc(C(F)(F)F)ccc1Nc1nc(SCc2ccccc2)nc2c1CCN(c1ncccc1C(F)(F)F)CC2 [Example 364, N-[2-Methyl-4-(trifluoromethyl)phenyl]-2-[(phenylmethyl)sulfanyl]-7-[3-(trifluoromethyl)pyridin-2-yl]-6,7,8,9-tetrahydro-5H-pyrimido[4,5-d]azepin-4-amine] | 1180
5 | CS(=O)(=O)c1nc2c(c(Nc3ccc(C(F)(F)F)cc3)n1)CCN(c1ncccc1C(F)(F)F)CC2 [Example 53, [2-Methanesulfonyl-7-(3-trifluoromethyl-pyridin-2-yl)-6,7,8,9-tetrahydro-5H-pyrimido[4,5-d]azepin-4-yl]-(4-trifluoromethyl-phenyl)-amine] | > 6700
6 | CN(C)c1nc2c(c(Nc3ccc(C(F)(F)F)c(Cl)c3)n1)CCN(c1ncccc1C(F)(F)F)CC2 [Example 45, N^4-(3-Chloro-4-trifluoromethyl-phenyl)-N^2,N^2-dimethyl-7-(3-trifluoro-methyl-pyridin-2-yl)-6,7,8,9-tetrahydro-5H-pyrimido[4,5-d]azepine-2,4-diamine] | 90
7 | CN(C)S(=O)(=O)c1ccc(Nc2nc(N3CCCCC3)nc3c2CCN(c2ncccc2C(F)(F)F)CC3)cc1 [Example 158, N,N-Dimethyl-4-({2-piperidin-1-yl-7-[3-(trifluoromethyl)pyridin-2-yl]-6,7,8,9-tetrahydro-5H-pyrimido[4,5-d]azepin-4-yl}amino)benzenesulfonamide] | 60
8 | CSc1nc2c(c(Nc3ccc(C(F)(F)F)cn3)n1)CCN(c1ncccc1C(F)(F)F)CC2 [Example 74B, [2-Methylsulfanyl-7-(3-trifluoromethyl-pyridin-2-yl)-6,7,8,9-tetrahydro-5H-pyrimido[4,5-d]azepin-4-yl]-(5-trifluoromethyl-pyridin-2-yl)-amine trifluoroacetic acid salt] | 3900
9 | FC(F)(F)c1ccc(Nc2nc(-c3ccccc3)nc3c2CCN(c2ncccc2C(F)(F)F)CC3)nc1 [Example 22, [2-Phenyl-7-(3-trifluoromethyl-pyridin-2-yl)-6,7,8,9-tetrahydro-5H-pyrimido[4,5-d]azepin-4-yl]-(5-trifluoromethyl-pyridin-2-yl)-amine] | 130
10 | FC(F)(F)c1ccc(Nc2nc(SCc3ccccc3)nc3c2CCN(c2ncccc2C(F)(F)F)CC3)cc1 [Example 353, 2-[(Phenylmethyl)sulfanyl]-N-[4-(trifluoromethyl)phenyl]-7-[3-(trifluoromethyl)pyridin-2-yl]-6,7,8,9-tetrahydro-5H-pyrimido[4,5-d]azepin-4-amine] | 240
11 | CSc1nc2c(c(Nc3ccc(C(F)(F)F)nc3)n1)CCN(c1ncccc1C(F)(F)F)CC2 [Example 75B, [2-Methylsulfanyl-7-(3-trifluoromethyl-pyridin-2-yl)-6,7,8,9-tetrahydro-5H-pyrimido[4,5-d]azepin-4-yl]-(6-trifluoromethyl-pyridin-3-yl)-amine trifluoroacetic acid salt] | 40
12 | O=S(=O)(c1ccc(Nc2nc(OC3CCOC3)nc3c2CCN(c2ncccc2C(F)(F)F)CC3)cc1)C(F)(F)F (stereo not shown) [Example 331, 2-(Tetrahydrofuran-3-yloxy)-7-[3-(trifluoromethyl)pyridin-2-yl]-N-{4-[(trifluoromethyl)sulfonyl]phenyl}-6,7,8,9-tetrahydro-5H-pyrimido[4,5-d]azepin-4-amine] | 500
13 | FC(F)(F)c1ccc(Nc2nc(Nc3ccccc3)nc3c2CCN(c2ncccc2C(F)(F)F)CC3)cc1 [Example 54, N^2-Phenyl-N^4-(4-trifluoromethyl-phenyl)-7-(3-trifluoromethyl-pyridin-2-yl)-6,7,8,9-tetrahydro-5H-pyrimido[4,5-d]azepine-2,4-diamine] | 230
14 | CC(C)c1nc2c(c(Nc3ccc(C(C)(C)C)c(N)c3)n1)CCN(c1ncccc1C(F)(F)F)CC2 [Example 199, 4-(1,1-Dimethylethyl)-N1-{2-(1-methylethyl)-7-[3-(trifluoromethyl)pyridin-2-yl]-6,7,8,9-tetrahydro-5H-pyrimido[4,5-d]azepin-4-yl}benzene-1,3-diamine] | 1360
15 | O=S(=O)(c1ccc(Nc2nc(OC3CCOCC3)nc3c2CCN(c2ncccc2C(F)(F)F)CC3)cc1)C(F)(F)F [Example 322, 2-(Tetrahydro-2H-pyran-4-yloxy)-7-[3-(trifluoromethyl)pyridin-2-yl]-N-{4-[(trifluoromethyl)sulfonyl]phenyl}-6,7,8,9-tetrahydro-5H-pyrimido[4,5-d]azepin-4-amine] | 10
16 | O[C@@H]1CCCN(c2nc3c(c(Nc4ccc(C(F)(F)F)cc4)n2)CCN(c2ncccc2C(F)(F)F)CC3)C1 [Example 91B, (R)-1-[4-(4-Trifluoromethyl-phenylamino)-7-(3-trifluoromethyl-pyridin-2-yl)-6,7,8,9-tetrahydro-5H-pyrimido[4,5-d]azepin-2-yl]-piperidin-3-ol trifluoroacetic acid salt] | 240
17 | CC(C)c1nc2c(c(Nc3cnc(C(F)(F)F)cn3)n1)CCN(c1ncccc1C(F)(F)F)CC2 [Example 191, [2-Isopropyl-7-(3-trifluoromethyl-pyridin-2-yl)-6,7,8,9-tetrahydro-5H-pyrimido[4,5-d]azepin-4-yl]-(5-trifluoromethyl-pyrazin-2-yl)-amine] | 260
18 | CC(C)c1nc2c(c(Nc3ccc(Cl)c(Cl)c3)n1)CCN(c1ncccc1C(F)(F)F)CC2 [Example 109, (3,4-Dichloro-phenyl)-[2-isopropyl-7-(3-trifluoromethyl-pyridin-2-yl)-6,7,8,9-tetrahydro-5H-pyrimido[4,5-d]azepin-4-yl]-amine] | 580
19 | CC(C)c1nc2c(c(Nc3ccc(C(C)(O)C(F)(F)F)cc3)n1)CCN(c1ncccc1C(F)(F)F)CC2 (stereo not shown) [Example 179, 1,1,1-Trifluoro-2-[4-({2-(1-methylethyl)-7-[3-(trifluoromethyl)pyridin-2-yl]-6,7,8,9-tetrahydro-5H-pyrimido[4,5-d]azepin-4-yl}amino)phenyl]propan-2-ol] | 1340
20 | CCCCOc1nc2c(c(Nc3ccc(C(F)(F)F)cc3)n1)CCN(c1ncccc1C(F)(F)F)CC2 [Example 343, 2-(Butyloxy)-N-[4-(trifluoromethyl)phenyl]-7-[3-(trifluoromethyl)pyridin-2-yl]-6,7,8,9-tetrahydro-5H-pyrimido[4,5-d]azepin-4-amine] | 60
21 | FC(F)(F)c1ccc(Nc2nc(C3CC3)nc3c2CCN(c2ncccc2C(F)(F)F)CC3)nc1 [Example 19, [2-Cyclopropyl-7-(3-trifluoromethyl-pyridin-2-yl)-6,7,8,9-tetrahydro-5H-pyrimido[4,5-d]azepin-4-yl]-(5-trifluoromethyl-pyridin-2-yl)-amine] | 510
22 | FC(F)(F)c1ccc(Nc2ncnc3c2CCN(c2ncccc2Cl)CC3)cc1 [Example 30, [7-(3-Chloro-pyridin-2-yl)-6,7,8,9-tetrahydro-5H-pyrimido[4,5-d]azepin-4-yl]-(4-trifluoromethyl-phenyl)-amine] | 1300
23 | CN1CCCc2ccc(Nc3nc(N4CCCCC4)nc4c3CCN(c3ncccc3C(F)(F)F)CC4)cc21 [Example 163, (1-Methyl-1,2,3,4-tetrahydro-quinolin-7-yl)-[2-piperidin-1-yl-7-(3-trifluoromethyl-pyridin-2-yl)-6,7,8,9-tetrahydro-5H-pyrimido[4,5-d]azepin-4-yl]-amine hydrochloride salt] | 120
24 | CC(C)(O)c1ccc(Nc2nc(N3CCCCC3)nc3c2CCN(c2ncccc2C(F)(F)F)CC3)cc1 [Example 177, 2-[4-({2-Piperidin-1-yl-7-[3-(trifluoromethyl)pyridin-2-yl]-6,7,8,9-tetrahydro-5H-pyrimido[4,5-d]azepin-4-yl}amino)phenyl]propan-2-ol] | 90
25 | FC(F)(F)c1ccc(Nc2nc(-c3ccoc3)nc3c2CCN(c2ncccc2C(F)(F)F)CC3)cc1 [Example 146, 2-Furan-3-yl-N-[4-(trifluoromethyl)phenyl]-7-[3-(trifluoromethyl)pyridin-2-yl]-6,7,8,9-tetrahydro-5H-pyrimido[4,5-d]azepin-4-amine] | 720
26 | COC(=O)c1ccc(Nc2nc(N3CCCCC3)nc3c2CCN(c2ncccc2C(F)(F)F)CC3)cc1F [Example 385, 2-Fluoro-4-[2-piperidin-1-yl-7-(3-trifluoromethyl-pyridin-2-yl)-6,7,8,9-tetrahydro-5H-pyrimido[4,5-d]azepin-4-ylamino]-benzoic acid methyl ester] | 820
27 | CC(C)Sc1nc2c(c(Nc3ccc(C(F)(F)F)cc3)n1)CCN(c1ncccc1C(F)(F)F)CC2 [Example 355, 2-[(1-Methylethyl)sulfanyl]-N-[4-(trifluoromethyl)phenyl]-7-[3-(trifluoromethyl)pyridin-2-yl]-6,7,8,9-tetrahydro-5H-pyrimido[4,5-d]azepin-4-amine] | 60
28 | FC(F)(F)c1ccc(Nc2nc(C3CC3)nc3c2CCN(c2ncccc2C(F)(F)F)CC3)cc1 [Example 5, [2-Cyclopropyl-7-(3-trifluoromethyl-pyridin-2-yl)-6,7,8,9-tetrahydro-5H-pyrimido[4,5-d]azepin-4-yl]-(4-trifluoromethyl-phenyl)-amine] | 150

Reference: patent publication US9422293B2 (priority 2006, dated 2016)
